Experimental data: US9029542B2 (priority 2011, dated 2015)
Values joined by “and” are separate entries in the source; they are usually repeats but may differ in a detail not shown here. Identical values can stand only once. Like-named read-outs stand apart in the source and are kept apart here.

Key:
cockspur grass = experiment: whole plant or invertebrate; format: in vivo; conditions: Echinochloa crus-galli, 120 h
rape [1] = experiment: whole plant or invertebrate; format: in vivo; conditions: 120 h
Capsella bursa-pastoris = experiment: whole plant or invertebrate; format: in vivo; conditions: 600 h, read-out: weed clearing activity, Capsella bursa-pastoris Postemergence
Amaranthus retroflexus = experiment: whole plant or invertebrate; format: in vivo
Eclipta prostrata = experiment: whole plant or invertebrate; format: in vivo
[2] = test system: weeds of the expanded weed killing spectrum; conditions: in vivo
rice = conditions: in vivo
corn = conditions: in vivo
cotton = conditions: in vivo
soybean = conditions: in vivo
rape [3] = conditions: in vivo
Wheat = conditions: in vivo
[4] = read-out: weed clearing activity, cockspur grass Root (Effect)
[5] = read-out: weed clearing activity, cockspur grass Stem (Effect)
[6] = read-out: weed clearing activity, rape Root (Effect)
[7] = read-out: weed clearing activity, rape Stem (Effect)
[8] = Amaranthus retroflexus, 600 h, read-out: weed clearing activity, Amaranthus retroflexus Postemergence
[9] = Eclipta prostrata, 600 h, read-out: weed clearing activity, Eclipta prostrata Postemergence

For `CC(OC(=O)COc1ccc(Cl)cc1Cl)P1(=O)OCC(C)(C)CO1` (stereo not shown) [Compound 11, 2-(2,4-dichlorophenoxyethylacyloxy)(methyl)methyl-5,5-dimethyl-1,3,2-dioxaphosphorinan-2-one phosphonate], the pest or weed control at 10 µg/g (cockspur grass; [4]) was 100%, the pest or weed control at 100 µg/g (cockspur grass; [4]) was 100% and the pest or weed control at 10 µg/g (cockspur grass; [5]) was 55%. It also gave a pest or weed control at 100 µg/g (cockspur grass; [5]) of 57%, a plant injury at 10 µg/g (rape [1]; [6]) of 99% and a plant injury at 100 µg/g (rape [1]; [6]) of 99%. It also gave a plant injury at 10 µg/g (rape [1]; [7]) of 88%, a plant injury at 100 µg/g (rape [1]; [7]) of 92% and a pest or weed control at 37.5 g/ha (Capsella bursa-pastoris) of 90%. It also gave a pest or weed control at 75 g/ha (Capsella bursa-pastoris) of 100%, a pest or weed control at 150 g/ha (Capsella bursa-pastoris) of 100% and a pest or weed control at 37.5 g/ha (Amaranthus retroflexus; [8]) of 70%. The pest or weed control at 75 g/ha (Amaranthus retroflexus; [8]) was 90%, the pest or weed control at 150 g/ha (Amaranthus retroflexus; [8]) was 80% and the “weed clearing activity, Amaranthus retroflexus Postemergence (※)” value (Amaranthus retroflexus; in vivo) was 100^※ %. For the same compound, the “weed clearing activity, Amaranthus retroflexus Postemergence, value in parentheses” value (Amaranthus retroflexus; in vivo) was 90(70) %, the pest or weed control at 37.5 g/ha (Eclipta prostrata; [9]) was 50% and the pest or weed control at 75 g/ha (Eclipta prostrata; [9]) was 85%. The pest or weed control at 150 g/ha (Eclipta prostrata; [9]) was 70%, the “weed clearing activity, Eclipta prostrata Postemergence (※)” value (Eclipta prostrata; in vivo) was 90^※ % and the “weed clearing activity, Eclipta prostrata Postemergence, value in parentheses” value (Eclipta prostrata; in vivo) was 85(70) %. For the same compound, the “Activity of expanded weed killing spectrum, Abutilon theophrasti” value [2] was 70% and 75%, the “Activity of expanded weed killing spectrum, Alligator alternanthera” value [2] was 60% and the “Activity of expanded weed killing spectrum, Cayenne pepper” value [2] was 70% and 75%. The “Activity of expanded weed killing spectrum, Cucumis sativus” value [2] was 40% and 50%, the “Activity of expanded weed killing spectrum, Pakchoi” value [2] was 85% and the “Activity of expanded weed killing spectrum, Pigweed” value [2] was 85%. For the same compound, the “Activity of expanded weed killing spectrum, Tomato” value [2] was 70% and 75%, the “Inhibitory activity on the crops, Rice” value (rice) was 10 and the “Inhibitory activity on the crops, Corn” value (corn) was 0. For the same compound, the “Inhibitory activity on the crops, Cotton” value (cotton) was 30, the “Inhibitory activity on the crops, Soybean” value (soybean) was 30 and the “Inhibitory activity on the crops, Rape” value (rape [3]) was 40. For the same compound, the “Inhibitory activity on the crops, Wheat” value (Wheat) was 0.
